Measurements reported in patent US11780851B2, “LRRK2 inhibitors” (H. Lundbeck A/S, priority 2021, dated 2023).
Where two headings read alike, the source gives them in different places.

Assays:
[1] = molecular target: T1, LRRK2 G2019S (Homo sapiens, UniProt Q5S007, G2019S); assay: LRRK2 G2019S kinase activity assay (LanthaScreen TR-FRET); type: biochemical; details: 250 pM LRRK2 G2019S, 1.3 mM ATP, 3 h at 30° C.; n≥2 tests
T1 construct: purchased Invitrogen (Life Technologies Corporation)
Method: (§1) LRRK2 kinase activity was measured using a LanthaScreen kinase activity assay available from Invitrogen (Life Technologies Corporation). The assay is a homogeneous time resolved-fluorescence resonance energy transfer (TR-FRET) assay that measures phosphorylation of a fluorescein-labelled peptide substrate Fluorescein-ERM LRRKtide obtainable from Life Technologies Corporation as a result of LRRK2 kinase activity. The phosphorylated peptide is recognized by a terbium-labelled phospho-specific anti-LRRKtide antibody (pLRRKtide antibody), obtainable from Life Technologies Corporation and, subsequently, the phosphorylated LRRKtide can be quantified by the extent of TR-FRET between the terbium donor and fluorescein acceptor. The LRRK2 kinase was obtained from Invitrogen (Life Technologies Corporation) and comprises residue 970 to 2527 of the full length human wild-type LRRK2 kinase, or a similar sequence with the G2019S mutation. As discussed above, this mutation increases the kinase activity relative to the wild type. The kinase reactions were performed in a 20 μL volume in 384-well plates. […] The mixture was further incubated for 30 minutes at RT. […] The measurement was repeated 30 times for fluorescein and 30 times for terbium emission with a 1000 μs time window between repeats. TR-FRET measurements were performed on a Biotek Synergy plate. The TR-FRET signal was calculated as the emission-ratio at 520 nm over 495 nm. The TR-FRET ratio readout for test compounds was normalized to 0% inhibition corresponding to TR-FRET ratio measured in control wells with no inhibition of the kinase activity and 100% inhibition corresponding to TR-FRET ratio measured in control wells with inhibitor. […] C is the IC50 value and D is the Hill slope coefficient. IC50 estimates were obtained from independent experiment and the logarithmic average was calculated.

[2] = molecular target: T2, LRRK2 WT (Homo sapiens, UniProt Q5S007); assay: LRRK2 wild-type kinase activity assay (LanthaScreen TR-FRET); type: biochemical; details: 1 nM LRRK2 WT, 1.3 mM ATP, 3.5 h at 30° C.; n≥2 tests
T2 construct: comprises residue 970 to 2527 of the full length human wild-type LRRK2 kinase; purchased Invitrogen (Life Technologies Corporation)
T2 sequence (Q5S007 970-2527): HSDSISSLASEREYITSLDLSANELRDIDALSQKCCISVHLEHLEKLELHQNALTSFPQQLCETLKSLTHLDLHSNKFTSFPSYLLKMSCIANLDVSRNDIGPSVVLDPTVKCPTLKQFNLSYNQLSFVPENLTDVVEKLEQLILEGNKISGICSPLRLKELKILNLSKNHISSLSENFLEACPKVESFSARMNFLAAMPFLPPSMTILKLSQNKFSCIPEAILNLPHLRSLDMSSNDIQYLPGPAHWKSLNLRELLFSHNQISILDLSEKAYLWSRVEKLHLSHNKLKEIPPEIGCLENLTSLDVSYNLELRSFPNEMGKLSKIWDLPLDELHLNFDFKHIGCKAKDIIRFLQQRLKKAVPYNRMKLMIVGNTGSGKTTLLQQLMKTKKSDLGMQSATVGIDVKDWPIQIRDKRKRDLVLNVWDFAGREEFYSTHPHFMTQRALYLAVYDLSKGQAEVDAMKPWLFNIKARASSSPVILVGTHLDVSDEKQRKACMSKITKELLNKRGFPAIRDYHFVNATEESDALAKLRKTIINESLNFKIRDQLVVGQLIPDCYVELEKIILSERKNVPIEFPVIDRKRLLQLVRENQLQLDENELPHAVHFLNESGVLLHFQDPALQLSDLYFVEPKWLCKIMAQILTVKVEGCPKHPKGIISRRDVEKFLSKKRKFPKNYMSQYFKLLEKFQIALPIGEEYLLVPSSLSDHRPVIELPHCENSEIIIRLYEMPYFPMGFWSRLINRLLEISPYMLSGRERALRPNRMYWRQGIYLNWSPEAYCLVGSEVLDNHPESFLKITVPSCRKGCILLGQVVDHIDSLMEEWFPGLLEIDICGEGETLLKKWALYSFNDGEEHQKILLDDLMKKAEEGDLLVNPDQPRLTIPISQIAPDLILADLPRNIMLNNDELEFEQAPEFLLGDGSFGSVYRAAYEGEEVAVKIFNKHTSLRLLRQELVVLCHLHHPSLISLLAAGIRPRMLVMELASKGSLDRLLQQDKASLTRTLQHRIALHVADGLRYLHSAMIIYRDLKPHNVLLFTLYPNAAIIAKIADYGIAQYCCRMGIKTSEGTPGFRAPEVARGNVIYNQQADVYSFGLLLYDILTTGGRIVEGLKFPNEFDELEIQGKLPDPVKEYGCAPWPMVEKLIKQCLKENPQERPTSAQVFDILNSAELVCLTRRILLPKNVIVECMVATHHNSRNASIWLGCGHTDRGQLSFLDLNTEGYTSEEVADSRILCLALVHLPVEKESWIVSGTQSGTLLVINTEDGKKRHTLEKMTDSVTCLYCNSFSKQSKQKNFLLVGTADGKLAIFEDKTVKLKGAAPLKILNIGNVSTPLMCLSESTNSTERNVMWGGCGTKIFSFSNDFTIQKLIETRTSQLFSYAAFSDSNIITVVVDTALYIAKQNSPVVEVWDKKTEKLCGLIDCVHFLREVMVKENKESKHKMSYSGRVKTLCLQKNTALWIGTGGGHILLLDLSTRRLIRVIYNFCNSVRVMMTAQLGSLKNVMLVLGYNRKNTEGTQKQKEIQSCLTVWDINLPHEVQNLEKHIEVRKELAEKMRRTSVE
Method: as §1

[3] = Hepatocyte intrinsic clearance assay; type: in vitro ADME, human; details: human, pooled donor, cryopreserved hepatocytes, pH 7.4, 0.1 μM, 2 h at 37° C., 1×10^6 hepatocytes/mL; * measured on 3 separate occasions, ** on a single occasion
Method: Test compounds (final concentration 0.1 μM, 0.05% organic) were incubated for 2 h at 37° C., with shaking, in supplemented Leibovitz L-15 media (pH7.4) containing commercially sourced, pooled donor, cryopreserved hepatocytes (final concentration 1×10^6 hepatocytes/m L). The CLint reactions (350 μL) were initiated by addition of test compound. Aliquots (25 μL) were taken at 1, 5, 10, 15, 30, 60, 90 and 120 minutes and then protein crashed with ice-cold acetonitrile containing internal standard (150 μL) then centrifuged (1960 g for 20 minutes at 4° C.). Supernatant was diluted (1:4) with deionized water then analyzed by liquid chromatography (LC)-tandem mass spectrometry (MS/MS). The intrinsic clearances (CLint) were calculated from the slope (k) of the linear regressions of percentages of compound remaining in incubation against incubation time, according to equations 2 and 3.

[4] = Rat B/P (brain disposition); type: in vivo, male Sprague-Dawley rats; details: male, Sprague-Dawley; for concentration at 1 h / Kp at 1 h / Kp uu at 1 h: time point 1.0 h
Method: Brain disposition was evaluated for each compound in male Sprague-Dawley rats (n=3, standard body weight). […] Isolated plasma and brain homogenates were extracted by standard protein precipitation in acetonitrile, containing internal standard, followed by LC-MS/MS analysis using an optimized analytical method. Concentrations of test compound in plasma and brain were quantified against matrix matched calibration standards. The total plasma and brain concentration data are presented in Table 7 alongside the calculated brain Kp (total brain concentration:total plasma concentration ratio).

[5] = Free fraction in plasma (equilibrium dialysis); type: in vitro ADME, male Sprague-Dawley rat; details: rat plasma, 1 μM, 5 h at 37° C.
Method: The free fractions in male Sprague-Dawley rat or female Gottingen minipig plasma (fuplasma) and rat brain homogenate (fubrain) were determined by equilibrium dialysis using 96-well HTD-dialysis plates with dialysis membranes (molecular weight cut off 12-14 KDa). One side of the HTD-dialysis plate was loaded with matrix (plasma or brain homogenate) and the other side with buffer (100 mM sodium phosphate buffer, pH 7.4). Test compounds were dissolved in DMSO then spiked (5 μL of 0.2 mM) into blank (995 μL) plasma or diluted brain homogenate (1:4 ratio in phosphate buffer) giving a final nominal concentration 1 μM (≤0.5% DMSO). The matrices were loaded into respective chambers and equilibrated against phosphate buffer for 5 h at 37° C. (in a humidified air incubator with 5% CO2 with shaking). Samples from both chambers (buffer and plasma or brain homogenate) were aliquoted to fresh 96-well polypropylene plates then matrix matched using an equal volume of opposite blank matrix before extraction with cold solvent (3 volumes acetonitrile) containing an appropriate bioanalytical internal standard. After centrifugation (20 min, 3200 g, 4° C.) the supernatants were diluted with appropriate volumes of water and compound concentrations were quantified by LC/MS-MS against matrix matched calibration standards. The fuplasma and fubrain were calculated as a percent free according to equation 4 below.
Where [F] is the analyte concentration on the buffer (receiver) side of the membrane; [T] is the analyte concentration on the plasma or brain (donor) side of the membrane; [TO] is the analyte concentration in the plasma or brain sample at time zero; D is matrix dilution factor which is determined as 4 for brain matrix and 1 for plasma matrix in these assays.

[6] = brain, oral gavage 10 mg/kg, mean ± stdev, n = 3, read-out: Total brain concentration
[7] = brain/plasma, oral gavage 10 mg/kg, mean ± stdev, n = 3
[8] = brain/plasma, po, 10 mg/kg, oral gavage 10 mg/kg, fubrain from brain homogenate
[9] = plasma, oral gavage 10 mg/kg, mean ± stdev, n = 3, read-out: Total plasma concentration

T1 sequence (Q5S007 970-2527 G2019S): as the sequence (Q5S007 970-2527) above, with G1050S counted along it

## Cc1c2c(nn1[C@H]1CCCOCC1)OCCCn1nc(Cl)c3cnc(nc31)N2 (single isomer, unassigned) [Example 29, (−)-(R) or (S)-8-Chloro-3-methyl-2-(oxepan-4-yl)-2,4,12,13-tetrahydro-11H-5,7-(azenometheno)dipyrazolo[3,4-b:5′,1′-g][1]oxa[4,6,8]triazacycloundecine]
[1]
  IC50: 4.3 nM
[2]
  IC50: 14 nM
[3]
  CLint scaled at 0.1 μM: 6.33 mL/min/kg

## [2H]C([2H])([2H])c1c2c(nn1[C@H]1CCCOCC1)OCCCn1nc(Cl)c3cnc(nc31)N2 (single isomer, unassigned) [Example 58, (+)-(R) or (S)-8-Chloro-3-(methyl-d3)-2-(oxepan-4-yl)-2,4,12,13-tetrahydro-11H-5,7-(azenometheno)dipyrazolo[3,4-b:5′,1′-g][1]oxa[4,6,8]triazacycloundecine]
[1]
  IC50: 7 nM
[2]
  IC50: 19 nM
[3]
  CLint scaled at 0.1 μM: 5 mL/min/kg

## [2H]C([2H])([2H])c1c2c(nn1[C@@H]1CCOC[C@H]1F)OCCCn1nc(Cl)c3cnc(nc31)N2 (single isomer, unassigned) [Example 62, (−)-8-Chloro-2-((3R,4S) or (3S,4R)-3-fluorotetrahydro-2H-pyran-4-yl)-3-(methyl-d3)-2,4,12,13-tetrahydro-11H-5,7-(azenometheno)dipyrazolo[3,4-b:5′,1′-g][1]oxa[4,6,8]triazacycloundecine]
[1]
  IC50: 5.9 nM
[2]
  IC50: 17 nM
[3]
  CLint scaled at 0.1 μM: < 4 mL/min/kg

## Clc1nn2c3nc(ncc13)Nc1c(nn(C3CCOCC3)c1C1CC1)OCCC2 [Example 10, 8-Chloro-3-cyclopropyl-2-(tetrahydro-2H-pyran-4-yl)-2,4,12,13-tetrahydro-11H-5,7-(azenometheno)dipyrazolo[3,4-b:5′,1′-g][1]oxa[4,6,8]triazacycloundecine]
[1]
  IC50: 6.2 nM
[2]
  IC50: 19 nM
[4]; [6]
  concentration at 1 h: 502 ± 92 ng/g
[4]; [7]
  Kp at 1 h: 1.62 ± 0.16
[4]; [8]
  Kp uu at 1 h: 0.38 ± 0.04
[4]; [9]
  concentration at 1 h: 314 ± 83 ng/mL
[5]
  fuplasma (% free): 30.2 % free

## Cc1c2c(nn1C1(C)COC1)OCCCn1nc(Cl)c3cnc(nc31)N2 [Example 14, 8-Chloro-3-methyl-2-(3-methyloxetan-3-yl)-2,4,12,13-tetrahydro-11H-5,7-(azenometheno)dipyrazolo[3,4-b:5′,1′-g][1]oxa[4,6,8]triazacycloundecine]
[1]
  IC50: 4 nM
[2]
  IC50: 16 nM
[4]; [6]
  concentration at 1 h: 421 ± 168 ng/g
[4]; [7]
  Kp at 1 h: 1.52 ± 0.37
[4]; [8]
  Kp uu at 1 h: 0.3 ± 0.07
[4]; [9]
  concentration at 1 h: 280 ± 102 ng/mL
[5]
  fuplasma (% free): 38.0 % free

## [2H]C([2H])([2H])c1c2c(nn1C1([2H])CCOCC1)OCCCn1nc(Cl)c3cnc(nc31)N2 [Example 15, 8-Chloro-3-(methyl-d3)-2-(tetrahydro-2H-pyran-4-yl-4-d)-2,4,12,13-tetrahydro-11H-5,7-(azenometheno)dipyrazolo[3,4-b:5′,1′-g][1]oxa[4,6,8]triazacycloundecine]
[1]
  IC50: 2.4 nM
[2]
  IC50: 6.8 nM
[3]
  CLint scaled at 0.1 μM: 4 mL/min/kg

## Cc1c2c(nn1[C@H]1CC[C@H](F)CC1)OCCCn1nc(Cl)c3cnc(nc31)N2 [Example 25, 8-Chloro-2-((1r,4r)-4-fluorocyclohexyl)-3-methyl-2,4,12,13-tetrahydro-11H-5,7-(azenometheno)dipyrazolo[3,4-b:5′,1′-g][1]oxa[4,6,8]triazacycloundecine]
[1]
  IC50: 5.1 nM
[2]
  IC50: 16 nM
[4]; [6]
  concentration at 1 h: 110 ± 18 ng/g
[4]; [7]
  Kp at 1 h: 2.87 ± 0.04
[4]; [8]
  Kp uu at 1 h: 0.65 ± 0.01
[4]; [9]
  concentration at 1 h: 38 ± 6 ng/mL
[5]
  fuplasma (% free): 12.0 % free

## Cc1c2c(nn1C13CC(C#N)(C1)C3)OCCCn1nc(Cl)c3cnc(nc31)N2 [Example 33, 3-(8-Chloro-3-methyl-12,13-dihydro-11H-5,7-(azenometheno)dipyrazolo[3,4-b:5′,1′-g][1]oxa[4,6,8]triazacycloundecin-2(4H)-yl)bicyclo[1.1.1]pentane-1-carbonitrile]
[1]
  IC50: 5.9 nM
[2]
  IC50: 18 nM
[4]; brain, oral gavage 5 mg/kg, mean ± stdev, n = 3, read-out: Total brain concentration
  concentration at 1 h: 37 ± 1 ng/g
[4]; brain/plasma, oral gavage 5 mg/kg, fubrain from brain homogenate
  Kp uu at 1 h: 0.4 ± 0.07
[4]; brain/plasma, oral gavage 5 mg/kg, mean ± stdev, n = 3
  Kp at 1 h: 0.87 ± 0.15
[4]; plasma, oral gavage 5 mg/kg, mean ± stdev, n = 3, read-out: Total plasma concentration
  concentration at 1 h: 43 ± 9 ng/mL
[5]
  fuplasma (% free): 11.0 % free

## Cc1c2c(nn1[C@H]1[C@@H]3COC[C@@H]31)OCCCn1nc(Cl)c3cnc(nc31)N2 [Example 38, 2-((1R,5S,6r)-3-Oxabicyclo[3.1.0]hexan-6-yl)-8-chloro-3-methyl-2,4,12,13-tetrahydro-11H-5,7-(azenometheno)dipyrazolo[3,4-b:5′,1′-g][1]oxa[4,6,8]triazacycloundecine]
[1]
  IC50: 11 nM
[2]
  IC50: 28 nM
[4]; brain, oral gavage 10 mg/kg, time point 0.5 h, mean ± stdev, n = 3, read-out: Total brain concentration
  concentration at 0.5 h: 562 ± 83 ng/g
[4]; brain/plasma, oral gavage 10 mg/kg, time point 0.5 h, fubrain from brain homogenate
  Kp uu at 0.5 h: 0.48 ± 0.03
[4]; brain/plasma, oral gavage 10 mg/kg, time point 0.5 h, mean ± stdev, n = 3
  Kp at 0.5 h: 1.58 ± 0.1
[4]; plasma, oral gavage 10 mg/kg, time point 0.5 h, mean ± stdev, n = 3, read-out: Total plasma concentration
  concentration at 0.5 h: 355 ± 31 ng/mL
[5]
  fuplasma (% free): 30.0 % free

## CCc1c2c(nn1[C@H]1CC[C@H](OC)CC1)OCCCn1nc(Cl)c3cnc(nc31)N2 [Example 57, 8-Chloro-3-ethyl-2-((1r,4r)-4-methoxycyclohexyl)-2,4,12,13-tetrahydro-11H-5,7-(azenometheno)dipyrazolo[3,4-b:5′,1′-g][1]oxa[4,6,8]triazacycloundecine]
[1]
  IC50: 6.2 nM
[2]
  IC50: 16 nM
[3]
  CLint scaled at 0.1 μM: 8.5 mL/min/kg
